Test results taken from paper PMC12466513, “Okanin Attenuates Mitochondrial Dysfunction and Apoptosis in UVA-Induced HaCaT Cells by Mitophagy Through SIRT3 Pathway” (Antioxidants, 2025).

Assays:
SIRT3 [1] = molecular target: T1, SIRT3 (Homo sapiens, UniProt Q9NTG7); assay: DARTS (pronase digestion, blot); assay type: biochemical; set-up: detected by blot; conditions: protein lysate
T1 sequence (Q9NTG7 102-399): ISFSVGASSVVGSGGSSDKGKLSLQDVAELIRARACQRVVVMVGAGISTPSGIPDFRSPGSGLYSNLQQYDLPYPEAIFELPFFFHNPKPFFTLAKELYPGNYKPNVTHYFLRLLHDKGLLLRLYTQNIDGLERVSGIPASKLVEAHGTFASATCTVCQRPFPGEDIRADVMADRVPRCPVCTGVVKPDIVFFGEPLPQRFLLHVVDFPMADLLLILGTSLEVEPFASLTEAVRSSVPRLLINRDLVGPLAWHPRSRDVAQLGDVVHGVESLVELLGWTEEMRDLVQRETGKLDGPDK

SIRT3 [2] = molecular target: T1, SIRT3; assay: surface plasmon resonance; assay type: binding; set-up: SIRT3 protein used for SPR; PDB 4JT8 was only the docking model

SMILES: O=C(/C=C/c1ccc(O)c(O)c1)c1ccc(O)c(O)c1O [okanin]
- DARTS protection (SIRT3 [1]): okanin treatment significantly enhanced SIRT3 resistance to pronase digestion in protein lysates
- Kd (SIRT3 [2]): 4.98 µM
